Assay results published in patent publication US20070032537A1, “5-Substituted 2h-pyrazole-3-carboxylic acid derivatives as agonists for the acid receptor rup25 for the treatment of dyslipidemia and related diseases” (Arena Pharmaceuticals, Inc., priority 2003, published 2007).
Like-named read-outs stand apart in the source and are kept apart here. One block for each compound: values may come before it.

Experiments:
hRUP25 [1] = molecular target: T1, hRUP25 (Homo sapiens, UniProt Q8TDS4); assay: Flash Plate adenylyl cyclase (cAMP) assay for agonists to hRUP25 in stably transfected CHO cells (clone 46); format: cell-based; details: read-out: RUP25 (EC50)
T1 sequence (Q8TDS4 whole entry): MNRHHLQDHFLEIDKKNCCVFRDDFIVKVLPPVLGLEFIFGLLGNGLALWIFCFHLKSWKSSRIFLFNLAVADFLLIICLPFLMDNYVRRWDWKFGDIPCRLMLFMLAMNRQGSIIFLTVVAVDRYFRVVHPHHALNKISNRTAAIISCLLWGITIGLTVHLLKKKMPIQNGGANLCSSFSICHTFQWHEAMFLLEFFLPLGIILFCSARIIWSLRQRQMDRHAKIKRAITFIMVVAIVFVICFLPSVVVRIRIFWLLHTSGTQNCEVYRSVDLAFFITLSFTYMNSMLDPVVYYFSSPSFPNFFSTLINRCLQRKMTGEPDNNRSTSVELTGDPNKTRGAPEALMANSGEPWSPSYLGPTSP
From the text: A modified Flash Plate™ Adenylyl Cyclase kit (New England Nuclear; Cat. No. SMP004A) is used for direct identification of candidate compounds as agonists to hRUP25 in accordance with the following protocol:
Stably transfected CHO cells (clone 46) were harvested from flasks via non-enzymatic means. The cells were washed in PBS and resuspended in the manufacturer's Assay Buffer. Live cells were counted using a hemacytometer and Trypan blue exclusion, and the cell concentration was adjusted to 2×10^6 cells/ml. cAMP standards and Detection Buffer (comprising 2 μCi of tracer [^125I]-cAMP (100 μl) to 11 ml Detection Buffer) were prepared and maintained in accordance with the manufacturer's instructions. Candidate compounds identified as per above (if frozen, thawed at room temperature) were added to their respective wells (preferably wells of a 96-well plate) at increasing concentrations (3 μl/well; 12 μM final assay concentration). To these wells, 100,000 cells in 50 μl of Assay Buffer were added and the mixture was then incubated for 30 minutes at room temperature, with gentle shaking. Following the incubation, 100 μl of Detection Buffer was added to each well, followed by incubation for 2-24 hours. Plates were counted in a Wallac MicroBeta™ plate reader using “Prot. #31” (as per manufacturer instructions).

[2] = system: adipocyte primary cultures derived from human subcutaneous fat; details: read-out: EC50, inhibition of isoproterenol induced lipolysis
hRUP25 [3] = molecular target: T1, hRUP25; assay: cell-based
[4] = system: rat epidimal fat derived adipocytes
[5] = system: adipocyte primary cultures derived from human subcutaneous fat; assay: cells; details: read-out: EC50, inhibition of isoproterenol induced lipolysis

EC50 (hRUP25 [1]): 4.3 µM
Compound: CSCc1cc(C(=O)O)[nH]n1 [Compound 48, 5-Methylsulfanylmethyl-2H-pyrazole-3-carboxylic acid]

EC50 (hRUP25 [1]): 7.9 µM
Compound: COCc1cc(C(=O)O)[nH]n1 [Compound 63, 5-Methoxymethyl-2H-pyrazole-3-carboxylic acid]

Compound: c1cncc(-c2nn[nH]n2)c1 [Compound P-3-T, 3-tetrazole-5-pyridine]
EC50 [2]: 0.218 µM

Compound: CN1CCCC1c1cccnc1 (stereo not shown) [nicotine]
EC50 (hRUP25 [3]): 9.8 µM

Compound: O=C(O)c1cccnc1 [nicotinic acid, pyridine-3-carboxylic acid]
inhibition of isoproterenol induced lipolysis ([4]; 10 μM): inhibiting isoproterenol induced lipolysis
dose-dependence of inhibition of isoproterenol induced lipolysis ([4]; increasing concentrations): dose-dependent inhibition
EC50 [5]: 0.716 µM
